# Results: patent US20080249142A1, “HYDRO[…] OF ME[…]” (Targacept, Inc., priority 2004, published 2008)
# Assay: physical and chemical properties of the hydroxybenzoate salts (stated, no method described)
# Type: physicochemical
# Details: solid salt, free-flowing crystalline powder
substance,measurement,value
(2S)-(4E)-N-methyl-5-(5-isopropoxy-3-pyridinyl)-4-penten-2-amine p-hydroxybenzoate [Example 1],physical and chemical stability of the salt,physically and chemically stable
